# Results from PubChem BioAssay AID328 (DTP/NCI, 2004).
# Values joined by “and” are separate entries in the source; they are usually repeats but may differ in a detail not shown here. Equal values may be shown once. Inconclusive results and toxic doses are left out.
# Tested on: BDF1 mice, P388 leukemia ip, median survival T/C
# Assay: NCI In Vivo Anticancer Drug Screen. Data for tumor model P388 Leukemia (intraperitoneal) in B6D2F1 (BDF1) mice
# Conditions: endpoint: median survival time, higher = longer survival
# Procedure, shortened: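 Reported as T/C, where T is the survival measurement in dosed animals and C the same measurement in vehicle controls.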
# [1] = dose: 50.0 mg/kg/injection, schedule: Q01DX009 (ip), vehicle: saline with Tween-80
# [2] = dose: 100.0 mg/kg/injection, schedule: Q01DX009 (ip), vehicle: saline with Tween-80
# [3] = dose: 100.0 mg/kg/injection, schedule: Q04DX003 (ip), vehicle: saline with Tween-80
# [4] = dose: 200.0 mg/kg/injection, schedule: Q01DX009 (ip), vehicle: saline with Tween-80
# [5] = dose: 200.0 mg/kg/injection, schedule: Q04DX003 (ip), vehicle: saline with Tween-80
# [6] = dose: 400.0 mg/kg/injection, schedule: Q01DX009 (ip), vehicle: saline with Tween-80
# [7] = dose: 400.0 mg/kg/injection, schedule: Q04DX003 (ip), vehicle: saline with Tween-80
# [8] = dose: 50.0 mg/kg/injection, schedule: Q04DX003 (ip), vehicle: saline with Tween-80
# [9] = dose: 150.0 mg/kg/injection, schedule: Q01DX009 (ip), vehicle: saline with Tween-80
# [10] = dose: 100.0 mg/kg/injection, schedule: Q04DX003 (ip), vehicle: saline
# [11] = dose: 200.0 mg/kg/injection, schedule: Q04DX003 (ip), vehicle: saline
# [12] = dose: 100.0 mg/kg/injection, schedule: Q04DX003 (ip), vehicle: Klucel (hydroxypropylcellulose) (HPC)
compound,measurement,setting,value
Cc1ccc(C(=O)NCCCOc2ccc([N+](=O)[O-])cc2Cl)cc1S(=O)(=O)F,T/C,[1],98 % of control
same,T/C,[2],114 % of control
same,T/C,[3],99 % of control
same,T/C,[4],98 % of control
same,T/C,[5],99 % of control
same,T/C,[6],107 % of control
same,T/C,[7],90 % of control
COc1ccc2c(c1)NC(=O)C2(C)SC (centres undefined),T/C,"dose: 12.5 mg/kg/injection, schedule: Q04DX003 (ip), vehicle: saline with Tween-80",103 % of control
same,T/C,"dose: 25.0 mg/kg/injection, schedule: Q04DX003 (ip), vehicle: saline with Tween-80",97 % of control
same,T/C,[8],106 % of control
CC(=O)C/C(C)=N\NC(=S)SCc1ccccc1,T/C,"dose: 75.0 mg/kg/injection, schedule: Q01DX009 (ip), vehicle: saline with Tween-80",90 % of control
same,T/C,[9],97 % of control
same,T/C,"dose: 300.0 mg/kg/injection, schedule: Q01DX009 (ip), vehicle: saline with Tween-80",92 % of control
CCOC(=O)c1nc(NC)sc1N,T/C,"dose: 25.0 mg/kg/injection, schedule: Q04DX003 (ip), vehicle: saline",97 % of control
same,T/C,"dose: 50.0 mg/kg/injection, schedule: Q04DX003 (ip), vehicle: saline",100 % of control
same,T/C,[10],105 % of control
same,T/C,[11],96 % of control
CCCCCC(=O)O[C@]1(C(C)=O)CC[C@H]2[C@@H]3CCC4=CC(=O)CC[C@]4(C)[C@H]3CC[C@@]21C,T/C,"dose: 44.0 mg/kg/injection, schedule: Q01DX009 (ip), vehicle: saline with Tween-80",105 % of control
same,T/C,"dose: 66.0 mg/kg/injection, schedule: Q01DX009 (ip), vehicle: saline with Tween-80",110 % of control
same,T/C,[2],90 % of control
same,T/C,[3],100 % of control
same,T/C,[9],100 % of control
same,T/C,[4],105 % of control
same,T/C,[5],100 % of control
same,T/C,[6],100 % of control
same,T/C,[7],100 % of control
O,T/C,"dose: 100.0 mg/kg/injection, schedule: Q01DX001 (ip), vehicle: saline",95 % of control
same,T/C,[10],105 % of control
same,T/C,"dose: 200.0 mg/kg/injection, schedule: Q01DX001 (ip), vehicle: saline",90 % of control
same,T/C,[11],95 % of control
same,T/C,"dose: 400.0 mg/kg/injection, schedule: Q01DX001 (ip), vehicle: saline",90 % of control
same,T/C,"dose: 400.0 mg/kg/injection, schedule: Q04DX003 (ip), vehicle: saline",105 % of control
CC(C)C(Br)C(=O)NCC(=O)NCC(=O)O (centres undefined),T/C,[3],104 % of control
same,T/C,[5],109 % of control
same,T/C,[7],100 % of control
O=C(CN1CCCCC1)c1ccc2c(c1)Cc1cc(C(=O)CN3CCCCC3)ccc1O2,T/C,[1],98 % of control
same,T/C,[2],90 % of control
CCCCCCCCCCCCCCCC(=O)OCC1OC(CO)(OC2OC(CO)C(O)C(O)C2O)C(O)C1O (centres undefined),T/C,[12],104 % of control
same,T/C,"dose: 200.0 mg/kg/injection, schedule: Q04DX003 (ip), vehicle: Klucel (hydroxypropylcellulose) (HPC)",112 % of control
[Cl][Ni+2][Cl].[NH-]CCN1CC1,T/C,"dose: 6.25 mg/kg/injection, schedule: Q01DX001 (ip), vehicle: saline",90 % of control
same,T/C,"dose: 12.5 mg/kg/injection, schedule: Q01DX001 (ip), vehicle: saline",100 % of control
same,T/C,"dose: 25.0 mg/kg/injection, schedule: Q01DX001 (ip), vehicle: saline",100 % of control
O=C(/C=C/c1ccc([N+](=O)[O-])cc1)c1ccc(Cl)cc1,T/C,[2],90 % of control
same,T/C,[3],95 % of control
same,T/C,[4],90 % of control
same,T/C,[5],90 % of control
same,T/C,[6],100 % of control
same,T/C,[7],100 % of control
COc1ccc(/C=C/C(=O)c2ccc(OC)c(OCc3ccccc3)c2)cc1OC,T/C,"dose: 25.0 mg/kg/injection, schedule: Q01DX009 (ip), vehicle: water",97 % of control
same,T/C,"dose: 50.0 mg/kg/injection, schedule: Q01DX009 (ip), vehicle: water",100 % of control and 121 % of control
same,T/C,"dose: 50.0 mg/kg/injection, schedule: Q04DX003 (ip), vehicle: water",100 % of control
same,T/C,"dose: 100.0 mg/kg/injection, schedule: Q01DX009 (ip), vehicle: water",100 % of control and 111 % of control
same,T/C,"dose: 100.0 mg/kg/injection, schedule: Q04DX003 (ip), vehicle: water",94 % of control
same,T/C,"dose: 200.0 mg/kg/injection, schedule: Q01DX009 (ip), vehicle: water",95 % of control and 101 % of control
same,T/C,"dose: 200.0 mg/kg/injection, schedule: Q04DX003 (ip), vehicle: water",86 % of control
same,T/C,"dose: 400.0 mg/kg/injection, schedule: Q01DX009 (ip), vehicle: water",97 % of control
same,T/C,"dose: 400.0 mg/kg/injection, schedule: Q04DX003 (ip), vehicle: water",88 % of control
same,T/C,"dose: 600.0 mg/kg/injection, schedule: Q01DX009 (ip), vehicle: water",91 % of control
CCOC(=O)COc1ccc(C=O)cc1,T/C,[12],103 % of control
same,T/C,"dose: 400.0 mg/kg/injection, schedule: Q04DX003 (ip), vehicle: Klucel (hydroxypropylcellulose) (HPC)",92 % of control
CCCCCC(C)C(=O)CCCC (centres undefined) (tested in a mixture with another compound),T/C,[8],104 % of control
same,T/C,[3],104 % of control
same,T/C,[5],100 % of control
C/C(=N\N)c1ccc(Cl)cc1,T/C,"dose: 6.25 mg/kg/injection, schedule: Q01DX009 (ip), vehicle: saline with Tween-80",100 % of control
same,T/C,"dose: 12.5 mg/kg/injection, schedule: Q01DX009 (ip), vehicle: saline with Tween-80",104 % of control
same,T/C,"dose: 25.0 mg/kg/injection, schedule: Q01DX009 (ip), vehicle: saline with Tween-80",95 % of control
CCOc1ccn(CC(=O)c2ccc([N+](=O)[O-])o2)c(=O)n1,T/C,[1],100 % of control
same,T/C,[2],101 % of control
COC(=O)/C=C1/OC(=O)CC1(C)C,T/C,"dose: 100.0 mg/kg/injection, schedule: Q01DX001 (ip), vehicle: saline with Tween-80",105 % of control
same,T/C,"dose: 200.0 mg/kg/injection, schedule: Q01DX001 (ip), vehicle: saline with Tween-80",95 % of control
same,T/C,"dose: 400.0 mg/kg/injection, schedule: Q01DX001 (ip), vehicle: saline with Tween-80",100 % of control
N#CSCc1ccc(Cl)c(CSC#N)c1,T/C,"dose: 8.0 mg/kg/injection, schedule: Q01DX009 (ip), vehicle: Klucel (hydroxypropylcellulose) (HPC)",110 % of control
same,T/C,"dose: 12.0 mg/kg/injection, schedule: Q01DX009 (ip), vehicle: Klucel (hydroxypropylcellulose) (HPC)",117 % of control
same,T/C,"dose: 12.5 mg/kg/injection, schedule: Q01DX009 (ip), vehicle: Klucel (hydroxypropylcellulose) (HPC)",160 % of control
same,T/C,"dose: 16.5 mg/kg/injection, schedule: Q04DX003 (ip), vehicle: Klucel (hydroxypropylcellulose) (HPC)",115 % of control
same,T/C,"dose: 25.0 mg/kg/injection, schedule: Q04DX003 (ip), vehicle: Klucel (hydroxypropylcellulose) (HPC)",115 % of control
same,T/C,"dose: 37.0 mg/kg/injection, schedule: Q04DX003 (ip), vehicle: Klucel (hydroxypropylcellulose) (HPC)",123 % of control
O=[N+]([O-])c1ccc(Oc2cc(Cl)c(Cl)cc2Cl)c([N+](=O)[O-])c1,T/C,"dose: 200.0 mg/kg/injection, schedule: Q01DX009 (ip), vehicle: saline sonified",90 % of control
same,T/C,"dose: 400.0 mg/kg/injection, schedule: Q01DX009 (ip), vehicle: saline sonified",90 % of control
CN(C)c1ccc(-c2c3ccccc3nc3ccccc23)cc1,T/C,[1],107 % of control
same,T/C,[2],115 % of control
same,T/C,[4],106 % of control
COc1cccc(/C=N/NC(=S)NC2CC3CCC2C3)c1O (centres undefined),T/C,[1],100 % of control
same,T/C,[2],95 % of control
same,T/C,[4],103 % of control
CC[NH-].CC[NH-].[Br][Pt+2][Br],T/C,"dose: 20.0 mg/kg/injection, schedule: Q04DX003 (ip), vehicle: other",100 % of control
same,T/C,"dose: 30.0 mg/kg/injection, schedule: Q04DX003 (ip), vehicle: other",158 % of control
same,T/C,"dose: 44.0 mg/kg/injection, schedule: Q04DX003 (ip), vehicle: other",154 % of control and 166 % of control
same,T/C,"dose: 66.0 mg/kg/injection, schedule: Q04DX003 (ip), vehicle: other",159 % of control
same,T/C,"dose: 100.0 mg/kg/injection, schedule: Q04DX003 (ip), vehicle: other",166 % of control and 168 % of control
same,T/C,"dose: 150.0 mg/kg/injection, schedule: Q04DX003 (ip), vehicle: other",154 % of control
same,T/C,"dose: 200.0 mg/kg/injection, schedule: Q04DX003 (ip), vehicle: other",162 % of control
CCN1c2ccccc2CC(CCN(C(C)C)C(C)C)(C(N)=O)c2ccccc21 (centres undefined),T/C,"dose: 100.0 mg/kg/injection, schedule: Q04DX002 (ip), vehicle: saline with Tween-80",108 % of control
Cc1ccc(C)c(-n2c(-c3ccc(Br)cc3)csc2=NC(=O)c2ccccc2F)c1,T/C,[2],110 % of control
same,T/C,[4],100 % of control
same,T/C,[6],115 % of control
Cc1ccccc1Nc1n[nH]c(=S)s1,T/C,[1],95 % of control
same,T/C,[2],95 % of control
same,T/C,[4],104 % of control
